# Assay results from ChEMBL document CHEMBL1201862, “PubChem BioAssay data set” (2004).
#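 Assay format: 96-well plates, 48-hour exposure. GI50 marks 50% less growth.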 The source made the active and inactive calls. Cut-off read from the data, not from the text of the source: active = GI50 up to about 1.1 µM and inactive = higher.
# Tests used:
# Assay in all cases: inhibition of tumour cell growth, NCI panel, 48 h
# UACC-257 = test system: UACC-257
# MOLT-4 = test system: MOLT-4
# SNB-19 = test system: SNB-19
# U-251 = test system: U-251
# SF-295 = test system: SF-295
# RXF 393 = test system: RXF 393
# OVCAR-3 = test system: OVCAR-3
# CCRF-CEM = test system: CCRF-CEM
# RPMI-8226 = test system: RPMI-8226
# HCC 2998 = test system: HCC 2998
# LOX IMVI = test system: LOX IMVI
# SNB-75 = test system: SNB-75
# ACHN = test system: ACHN
# MDA-MB-231 = test system: MDA-MB-231
# Hs-578T = test system: Hs-578T
# MCF7 = test system: MCF7
# TK-10 = test system: TK-10
# SK-MEL-2 = test system: SK-MEL-2
# OVCAR-8 = test system: OVCAR-8
# T47D = test system: T47D
# SN12C = test system: SN12C
# NCI-H23 = test system: NCI-H23
# SK-OV-3 = test system: SK-OV-3
# NCI-H522 = test system: NCI-H522
# HT-29 = test system: HT-29
# NCI/ADR-RES = test system: NCI/ADR-RES
# K562 = test system: K562
# UACC-62 = test system: UACC-62
# OVCAR-5 = test system: OVCAR-5
# MDA-N = test system: MDA-N
# SF-539 = test system: SF-539
# EKVX = test system: EKVX
# COLO 205 = test system: COLO 205
# NCI-H460 = test system: NCI-H460
# Malme-3M = test system: Malme-3M
# HCT-15 = test system: HCT-15
# KM12 = test system: KM12
# 786-0 = test system: 786-0
# OVCAR-4 = test system: OVCAR-4
# UO-31 = test system: UO-31
# HL-60 = test system: HL-60
# MDA-MB-435 = test system: MDA-MB-435
# M14 = test system: M14
# IGROV-1 = test system: IGROV-1
# NCI-H226 = test system: NCI-H226
# SK-MEL-28 = test system: SK-MEL-28
# HOP-92 = test system: HOP-92
# BT-549 = test system: BT-549
# HCT-116 = test system: HCT-116
# SK-MEL-5 = test system: SK-MEL-5
# SR = test system: SR
# A498 = test system: A498
# DU-145 = test system: DU-145
# SW-620 = test system: SW-620
# HOP-62 = test system: HOP-62
# PC-3 = test system: PC-3
# A549 = test system: A549
# SF-268 = test system: SF-268
# CAKI-1 = test system: CAKI-1
structure (smiles),measurement,setting,value
O=C(Cc1ccccc1)NCCc1ccc(O)c(O)c1,GI50,UACC-257,> 100 µM (inactive)
same,GI50,MOLT-4,16.6 µM (inactive)
same,GI50,SNB-19,> 100 µM (inactive)
same,GI50,U-251,78.7 µM (inactive)
same,GI50,SF-295,> 100 µM (inactive)
same,GI50,RXF 393,> 100 µM (inactive)
same,GI50,OVCAR-3,35 µM (inactive)
same,GI50,CCRF-CEM,5.14 µM (inactive)
same,GI50,RPMI-8226,15.6 µM (inactive)
same,GI50,HCC 2998,> 100 µM (inactive)
same,GI50,LOX IMVI,44.7 µM (inactive)
same,GI50,SNB-75,> 100 µM (inactive)
same,GI50,ACHN,64.4 µM (inactive)
same,GI50,MDA-MB-231,37.2 µM (inactive)
same,GI50,Hs-578T,> 100 µM (inactive)
same,GI50,MCF7,> 100 µM (inactive)
same,GI50,TK-10,> 100 µM (inactive)
same,GI50,SK-MEL-2,24.8 µM (inactive)
same,GI50,OVCAR-8,> 100 µM (inactive)
same,GI50,T47D,> 100 µM (inactive)
same,GI50,SN12C,95.9 µM (inactive)
same,GI50,NCI-H23,52.6 µM (inactive)
same,GI50,SK-OV-3,> 100 µM (inactive)
same,GI50,NCI-H522,28.4 µM (inactive)
same,GI50,HT-29,> 100 µM (inactive)
same,GI50,NCI/ADR-RES,> 100 µM (inactive)
same,GI50,K562,17.9 µM (inactive)
same,GI50,UACC-62,48.9 µM (inactive)
same,GI50,OVCAR-5,> 100 µM (inactive)
same,GI50,MDA-N,17.4 µM (inactive)
same,GI50,SF-539,> 100 µM (inactive)
same,GI50,EKVX,> 100 µM (inactive)
same,GI50,COLO 205,> 100 µM (inactive)
same,GI50,NCI-H460,> 100 µM (inactive)
same,GI50,Malme-3M,> 100 µM (inactive)
same,GI50,HCT-15,54.1 µM
same,GI50,KM12,> 100 µM (inactive)
same,GI50,786-0,93.3 µM (inactive)
same,GI50,OVCAR-4,13 µM (inactive)
same,GI50,UO-31,41.2 µM (inactive)
same,GI50,HL-60,13.8 µM (inactive)
same,GI50,MDA-MB-435,17.9 µM (inactive)
same,GI50,M14,> 100 µM (inactive)
same,GI50,IGROV-1,77.1 µM (inactive)
same,GI50,NCI-H226,> 100 µM (inactive)
same,GI50,SK-MEL-28,> 100 µM (inactive)
same,GI50,HOP-92,> 100 µM (inactive)
same,GI50,BT-549,82.8 µM (inactive)
same,GI50,HCT-116,> 100 µM (inactive)
same,GI50,SK-MEL-5,> 100 µM (inactive)
same,GI50,SR,23.3 µM (inactive)
same,GI50,A498,> 100 µM (inactive)
same,GI50,DU-145,> 100 µM (inactive)
same,GI50,SW-620,> 100 µM (inactive)
same,GI50,HOP-62,> 100 µM (inactive)
same,GI50,PC-3,> 100 µM (inactive)
same,GI50,A549,> 100 µM (inactive)
same,GI50,SF-268,63.1 µM (inactive)
CC(C)=CCC(O)C1=CC(=O)c2c(O)ccc(O)c2C1=O (stereo unspecified),GI50,UACC-257,1.5 µM (inactive)
same,GI50,MOLT-4,0.063 µM (active)
same,GI50,SNB-19,2.36 µM (inactive)
same,GI50,U-251,2.1 µM (inactive)
same,GI50,SF-295,2.78 µM (inactive)
same,GI50,RXF 393,0.745 µM (active)
same,GI50,CAKI-1,0.407 µM (active)
same,GI50,OVCAR-3,1.14 µM (inactive)
same,GI50,CCRF-CEM,0.075 µM (active)
same,GI50,RPMI-8226,0.23 µM (active)
same,GI50,HCC 2998,1.74 µM (inactive)
same,GI50,LOX IMVI,1.22 µM (inactive)
same,GI50,SNB-75,5.04 µM (inactive)
same,GI50,ACHN,0.525 µM (active)
same,GI50,MDA-MB-231,1.55 µM (inactive)
same,GI50,Hs-578T,2.9 µM (inactive)
same,GI50,MCF7,0.557 µM (active)
same,GI50,TK-10,1.53 µM (inactive)
same,GI50,SK-MEL-2,1.95 µM (inactive)
same,GI50,OVCAR-8,1.55 µM (inactive)
same,GI50,T47D,0.39 µM (active)
same,GI50,SN12C,0.664 µM (active)
same,GI50,NCI-H23,1.13 µM (inactive)
same,GI50,SK-OV-3,11.7 µM (inactive)
same,GI50,NCI-H522,0.258 µM (active)
same,GI50,HT-29,1.97 µM (inactive)
same,GI50,NCI/ADR-RES,2.05 µM (inactive)
same,GI50,K562,0.191 µM (active)
same,GI50,UACC-62,1.58 µM (inactive)
same,GI50,OVCAR-5,1.97 µM (inactive)
same,GI50,MDA-N,0.805 µM (active)
same,GI50,SF-539,1.61 µM (inactive)
same,GI50,EKVX,1.54 µM (inactive)
same,GI50,COLO 205,0.171 µM (active)
same,GI50,NCI-H460,1.88 µM (inactive)
same,GI50,HCT-15,0.21 µM
same,GI50,KM12,4.7 µM (inactive)
same,GI50,786-0,0.494 µM (active)
same,GI50,OVCAR-4,1.76 µM (inactive)
same,GI50,UO-31,1.38 µM (inactive)
same,GI50,HL-60,0.0349 µM (active)
same,GI50,MDA-MB-435,1.31 µM (inactive)
same,GI50,M14,1.16 µM (inactive)
same,GI50,IGROV-1,1.64 µM (inactive)
same,GI50,NCI-H226,1.01 µM (active)
same,GI50,SK-MEL-28,1.48 µM (inactive)
same,GI50,HOP-92,0.641 µM (active)
same,GI50,BT-549,1.58 µM (inactive)
same,GI50,HCT-116,1.25 µM (inactive)
same,GI50,SK-MEL-5,0.301 µM (active)
same,GI50,SR,0.15 µM (active)
same,GI50,A498,1.96 µM (inactive)
same,GI50,DU-145,1.22 µM (inactive)
same,GI50,SW-620,0.933 µM (active)
same,GI50,HOP-62,1.82 µM (inactive)
same,GI50,PC-3,2.23 µM (inactive)
same,GI50,A549,4.82 µM (inactive)
same,GI50,SF-268,2.27 µM (inactive)
